The structures appear in SMILES notation.

For one data set, the target named is Collagenase 3 (Homo sapiens, UniProt P45452). Nature of the data set: Inhibition of human recombinant MMP13 expressed in Escherichia coli.
A short description of data set [1]: AUC in C57BL/6 mouse at 30 mg/kg, po. The conditions noted are these: plasma. The data set is classed as ADME, organism-based. More on the design: dose 30 mg/kg, route oral.
Data set [2] in a line: Oral bioavailability in C57BL/6 mouse at 30 mg/kg. The data set is classed as ADME, organism-based. The settings on record: in vivo.
The nature of data set [3]: Clearance in C57BL/6 mouse at 2 mg/kg, iv. It is filed as ADME, organism-based. The arrangement: dose 2 mg/kg, route intravenous. The settings on record: in vivo.
A short description of data set [4]: Half life in C57BL/6 mouse at 30 mg/kg, po. More on the design: dose 30 mg/kg, route oral. The settings on record: in vivo. It is filed as ADME, organism-based.
Data set [5] is described as follows: Volume of distribution at steady state in C57BL/6 mouse at 2 mg/kg, iv. It is filed as ADME, organism-based. More on the design: dose 2 mg/kg, route intravenous. The conditions noted are these: in vivo, read-out: Vdss.
A short description of data set [6]: Cmax in C57BL/6 mouse at 30 mg/kg, po. The data set is classed as ADME, organism-based. More on the design: dose 30 mg/kg, route oral. The conditions noted are these: in vivo.

Usually IC50 stands for the concentration at which inhibition is half-maximal. Take `CC(C)[C@@H](NS(=O)(=O)c1ccc2oc3ccccc3c2c1)C(=O)O`: the IC50 on Collagenase 3 was 2.5 µM.
As for `COC(=O)Nc1cc2oc3ccc(S(=O)(=O)N[C@@H](C(=O)O)C(C)C)cc3c2cc1Br`, the half-maximal inhibitory concentration (IC50) at Collagenase 3 came out at 25.4 µM.
On the same count and under the same terms, to `CC(C)[C@@H](NS(=O)(=O)c1ccc2oc3cc(NS(=O)(=O)c4ccccc4)ccc3c2c1)C(=O)O` belongs 6 µM; to `CC(C)[C@H](NS(=O)(=O)c1ccc2c(c1)oc1ccc(NS(C)(=O)=O)cc12)C(=O)O`, 0.093 µM.
In the case of `CC(C)[C@@H](NS(=O)(=O)c1ccc2oc3cc(NS(=O)(=O)C(C)C)ccc3c2c1)C(=O)O`, the IC50 at Collagenase 3 stood at 0.12 µM.
Turning to `Cc1noc(C)c1S(=O)(=O)Nc1ccc2c(c1)oc1ccc(S(=O)(=O)N[C@@H](C(=O)O)C(C)C)cc12`, on Collagenase 3, the concentration for half-maximal inhibition (IC50) was 34 µM.
Usually AUC stands for concentration integrated over time. By bioavailability is commonly meant the share of a dose that reaches the circulation, judged against a reference dose that is usually intravenous. Low values mean poor availability, high ones good availability. The clearance is the volume of plasma or blood freed of the substance per unit of time. Low values mean inefficient removal, high ones efficient removal. Broadly, the half-life is the time needed for the level to fall by half in the phase considered. As usually defined, the Cmax is the peak of the concentration-time curve. `COC(=O)Nc1ccc2c(c1)oc1ccc(S(=O)(=O)N[C@@H](C(=O)O)C(C)C)cc12` came in with an AUC in data set [1] of 21.7 µg·h/mL. Further, in data set [2], the bioavailability came out at 36%. For the same compound, the clearance in data set [3] stood at 0.498 L/h/kg. The IC50 on Collagenase 3 is 0.5 µM. In addition, the half-life in data set [4] is 2.7 h. Besides, the Vd in data set [5] came to 1.6 L/kg. In data set [6], this compound displayed a Cmax of 10.6 µg/mL.
With `CCCOC(=O)Nc1ccc2c(c1)oc1ccc(S(=O)(=O)N[C@@H](C(=O)O)C(C)C)cc12`, the 50% inhibitory concentration (IC50) at Collagenase 3 came to 0.109 µM.
Same read-out and setting: the value for `CC(C)OC(=O)Nc1ccc2c(c1)oc1ccc(S(=O)(=O)N[C@@H](C(=O)O)C(C)C)cc12` was 0.5 µM.
In data set [1], `CC(C)[C@@H](NS(=O)(=O)c1ccc2oc3cc(NS(C)(=O)=O)ccc3c2c1)C(=O)O` gave an AUC of 0.245 µg·h/mL. Moreover, the bioavailability in data set [2] amounted to 7%. In data set [3], the clearance is 8.48 L/h/kg. In data set [4], this compound had a half-life of 2 h. Further, the Vd in data set [5] came out at 1.9 L/kg. The compound also returned a Cmax in data set [6] of 0.103 µg/mL.
For `CC(C)[C@H](NS(=O)(=O)c1ccc2c(c1)oc1ccc(NS(=O)(=O)CC(F)(F)F)cc12)C(=O)O`, the half-maximal inhibitory concentration (IC50) at Collagenase 3 was found to be 0.67 µM.
Still for that read-out and setting: to `CC(C)[C@@H](NS(=O)(=O)c1ccc2oc3cc(NC(=O)Oc4ccccc4)ccc3c2c1)C(=O)O` belongs 0.6 µM; to `COC(=O)Nc1cc2oc3ccc(S(=O)(=O)N[C@H](C(=O)O)C(C)C)cc3c2cc1Br`, more than 25 µM.
On the same count and under the same terms, to `CC(C)[C@H](NS(=O)(=O)c1ccc2c(c1)oc1ccc(NC(=O)Oc3ccc(F)cc3)cc12)C(=O)O` belongs 0.2 µM.
On the same count and under the same terms, the value for `CC(C)[C@H](NS(=O)(=O)c1ccc2c(c1)oc1cc(NC(=O)OCCF)ccc12)C(=O)O` was 0.097 µM; that for `CC(C)[C@H](NS(=O)(=O)c1ccc2c(c1)oc1cc(NC(=O)Oc3ccc(F)cc3)ccc12)C(=O)O` was 0.361 µM; that for `CC(C)[C@H](NS(=O)(=O)c1ccc2c(c1)oc1ccc(NC(=O)NC3CCCC3)cc12)C(=O)O` was 0.0021 µM.
In turn, `CC(C)[C@H](NS(=O)(=O)c1ccc2c(c1)oc1ccc(NC(=O)NCCc3cccs3)cc12)C(=O)O` displayed a clearance in data set [3] of 12.7 L/h/kg. Moreover, the IC50 on Collagenase 3 was 0.0011 µM. For the same compound, the Vd in data set [5] amounted to 15.6 L/kg.
With `CC(C)[C@H](NS(=O)(=O)c1ccc2c(c1)oc1ccc(NC(=O)Oc3ccccc3Cl)cc12)C(=O)O`, at Collagenase 3, the half-inhibitory concentration (IC50) stood at 0.18 µM.
On to `COC(=O)Nc1ccc2c(c1)oc1cc(S(=O)(=O)N[C@H](C(=O)O)C(C)C)ccc12`, for which the IC50 at Collagenase 3 is more than 1 µM.
On the same count and under the same terms, to `CCCOC(=O)Nc1ccc2oc3cc(S(=O)(=O)N[C@H](C(=O)O)C(C)C)ccc3c2c1` belongs 0.01 µM; to `CC(C)COC(=O)Nc1ccc2oc3cc(S(=O)(=O)N[C@H](C(=O)O)C(C)C)ccc3c2c1`, 0.01 µM; to `CC(C)[C@H](NS(=O)(=O)c1ccc2oc3ccccc3c2c1)C(=O)O`, 25 µM.
Still for that read-out and setting: to `CC(C)[C@H](NS(=O)(=O)c1ccc2c(c1)oc1ccc(NC(N)=O)cc12)C(=O)O` belongs 0.059 µM.
In the case of `CCOC(=O)Nc1ccc2oc3cc(S(=O)(=O)N[C@H](C(=O)O)C(C)C)ccc3c2c1`, the area under the curve (AUC) in data set [1] was found to be 10.8 µg·h/mL. The compound also showed a bioavailability in data set [2] of 42%. The clearance in data set [3] is 1.14 L/h/kg. Besides, at Collagenase 3, the IC50 came to 0.1 µM. In addition, in data set [4], the half-life is 3.4 h. In data set [5], the Vd was determined as 1.6 L/kg. The same compound yielded a Cmax in data set [6] of 7.79 µg/mL.
Consider `CC(C)[C@H](NS(=O)(=O)c1ccc2c(c1)oc1ccc(NC(=O)OCCF)cc12)C(=O)O`, for which the IC50 at Collagenase 3 worked out at 0.01 µM.
The same measure, in the same setting: the value for `CC(C)[C@H](NS(=O)(=O)c1ccc2c(c1)oc1ccc(NC(=O)Oc3ccccc3)cc12)C(=O)O` was 0.22 µM.
On the same count and under the same terms, the value for `Cc1ccc(OC(=O)Nc2ccc3oc4cc(S(=O)(=O)N[C@H](C(=O)O)C(C)C)ccc4c3c2)cc1` was 0.1 µM; that for `CC(C)[C@H](NS(=O)(=O)c1ccc2c(c1)oc1ccc(NC(=O)Nc3ccsc3)cc12)C(=O)O` was 0.0033 µM.

The values above are taken from ChEMBL document CHEMBL1153372, “A selective matrix metalloprotease 12 inhibitor for potential treatment of chronic obstructive pulmonary disease (COPD): discovery of (S)-2-(8-(methoxycarbonylamino)dibenzo[b,d]furan-3-sulfonamido)-3-methylbutanoic acid (MMP408)” (J Med Chem, 2009).
